# From PubChem BioAssay (NCI)
#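 These data come from cells grown in 96-well plates and exposed to compound for 48 hours at five concentrations. TGI denotes the concentration required for complete inhibition of growth.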 Where a SMILES comes first, the peptide text is derived from it. The star is where a group is joined. Boc = CC(C)(C)OC(=O)*
# Assays:
# Experiment in all cases: growth of human tumour cells (NCI), 48 h
# CAKI-1 renal = system: CAKI-1 renal
# HT29 colon = system: HT29 colon
# SF-295 CNS = system: SF-295 CNS
# RXF 393 renal = system: RXF 393 renal
# MCF7 breast = system: MCF7 breast
# SF-268 CNS = system: SF-268 CNS
# OVCAR-5 ovarian = system: OVCAR-5 ovarian
# ACHN renal = system: ACHN renal
# DU-145 prostate = system: DU-145 prostate
# HCT-15 colon = system: HCT-15 colon
# KM12 colon = system: KM12 colon
# 786-0 renal = system: 786-0 renal
# NCI-H23 lung = system: NCI-H23 lung
# MALME-3M melanoma = system: MALME-3M melanoma
# MDA-MB-231 breast = system: MDA-MB-231 breast
# PC-3 prostate = system: PC-3 prostate
# NCI-H522 lung = system: NCI-H522 lung
# A549 NSCLC = system: A549 NSCLC
# LOX IMVI melanoma = system: LOX IMVI melanoma
# SNB-19 CNS = system: SNB-19 CNS
# TK-10 renal = system: TK-10 renal
# HOP-62 NSCLC = system: HOP-62 NSCLC
# SF-539 CNS = system: SF-539 CNS
# IGROV1 ovarian = system: IGROV1 ovarian
# HCT-116 colon = system: HCT-116 colon
# HS 578T breast = system: HS 578T breast
# NCI/ADR-RES ovarian = system: NCI/ADR-RES ovarian
# UACC-257 melanoma = system: UACC-257 melanoma
# NCI-H226 lung = system: NCI-H226 lung
# SK-OV-3 ovarian = system: SK-OV-3 ovarian
# COLO 205 colon = system: COLO 205 colon
# OVCAR-3 ovarian = system: OVCAR-3 ovarian
# OVCAR-8 ovarian = system: OVCAR-8 ovarian
# MDA-N = system: MDA-N
# EKVX NSCLC = system: EKVX NSCLC
# UO-31 renal = system: UO-31 renal
# HCC-2998 colon = system: HCC-2998 colon
# NCI-H460 lung = system: NCI-H460 lung
# M14 melanoma = system: M14 melanoma
# UACC-62 melanoma = system: UACC-62 melanoma
# SK-MEL-5 melanoma = system: SK-MEL-5 melanoma
# BT-549 breast = system: BT-549 breast
# SNB-75 CNS = system: SNB-75 CNS
# CCRF-CEM leukemia = system: CCRF-CEM leukemia
# MDA-MB-435 = system: MDA-MB-435
# SW-620 colon = system: SW-620 colon
# SK-MEL-2 melanoma = system: SK-MEL-2 melanoma
# SN12C renal = system: SN12C renal
# T-47D breast = system: T-47D breast
# RPMI-8226 leukemia = system: RPMI-8226 leukemia
# U251 CNS = system: U251 CNS
# SK-MEL-28 melanoma = system: SK-MEL-28 melanoma
# MOLT-4 leukemia = system: MOLT-4 leukemia
# K-562 leukemia = system: K-562 leukemia
# A498 renal = system: A498 renal
# OVCAR-4 ovarian = system: OVCAR-4 ovarian
# HOP-92 NSCLC = system: HOP-92 NSCLC
# HL-60(TB) leukemia = system: HL-60(TB) leukemia
smiles,measurement,setting,value
COC(=O)[C@H](Cc1ccc(O)cc1)NC(=O)[C@H](Cc1ccc(O)cc1)NC(=O)OC(C)(C)C (Boc-Tyr-Tyr-OMe),TGI,CAKI-1 renal,> 100 µM
same,TGI,HT29 colon,> 100 µM
same,TGI,SF-295 CNS,> 100 µM
same,TGI,RXF 393 renal,> 100 µM
same,TGI,MCF7 breast,> 100 µM
same,TGI,SF-268 CNS,> 100 µM
same,TGI,OVCAR-5 ovarian,> 100 µM
same,TGI,ACHN renal,> 100 µM
same,TGI,DU-145 prostate,> 100 µM
same,TGI,HCT-15 colon,> 100 µM
same,TGI,KM12 colon,> 100 µM
same,TGI,786-0 renal,> 100 µM
same,TGI,NCI-H23 lung,> 100 µM
same,TGI,MALME-3M melanoma,> 100 µM
same,TGI,MDA-MB-231 breast,> 100 µM
same,TGI,PC-3 prostate,> 100 µM
same,TGI,NCI-H522 lung,> 100 µM
same,TGI,A549 NSCLC,> 100 µM
same,TGI,LOX IMVI melanoma,> 100 µM
same,TGI,SNB-19 CNS,> 100 µM
same,TGI,TK-10 renal,> 100 µM
same,TGI,HOP-62 NSCLC,> 100 µM
same,TGI,SF-539 CNS,> 100 µM
same,TGI,IGROV1 ovarian,> 100 µM
same,TGI,HCT-116 colon,> 100 µM
same,TGI,HS 578T breast,> 100 µM
same,TGI,NCI/ADR-RES ovarian,> 100 µM
same,TGI,UACC-257 melanoma,> 100 µM
same,TGI,NCI-H226 lung,> 100 µM
same,TGI,SK-OV-3 ovarian,> 100 µM
same,TGI,COLO 205 colon,> 100 µM
same,TGI,OVCAR-3 ovarian,> 100 µM
same,TGI,OVCAR-8 ovarian,> 100 µM
same,TGI,MDA-N,> 100 µM
same,TGI,EKVX NSCLC,> 100 µM
same,TGI,UO-31 renal,> 100 µM
same,TGI,HCC-2998 colon,> 100 µM
same,TGI,NCI-H460 lung,> 100 µM
same,TGI,M14 melanoma,> 100 µM
same,TGI,UACC-62 melanoma,> 100 µM
same,TGI,SK-MEL-5 melanoma,> 100 µM
same,TGI,BT-549 breast,> 100 µM
same,TGI,SNB-75 CNS,> 100 µM
Cc1n(Cc2ccccc2)nc2sc(N)n[n+]12,TGI,CAKI-1 renal,> 100 µM
same,TGI,CCRF-CEM leukemia,> 100 µM
same,TGI,HT29 colon,> 100 µM
same,TGI,SF-295 CNS,> 100 µM
same,TGI,RXF 393 renal,> 100 µM
same,TGI,MCF7 breast,> 100 µM
same,TGI,SF-268 CNS,> 100 µM
same,TGI,OVCAR-5 ovarian,> 100 µM
same,TGI,ACHN renal,> 100 µM
same,TGI,DU-145 prostate,> 100 µM
same,TGI,MDA-MB-435,> 100 µM
same,TGI,HCT-15 colon,> 100 µM
same,TGI,KM12 colon,> 100 µM
same,TGI,SW-620 colon,> 100 µM
same,TGI,SK-MEL-2 melanoma,> 100 µM
same,TGI,786-0 renal,> 100 µM
same,TGI,NCI-H23 lung,> 100 µM
same,TGI,MALME-3M melanoma,> 100 µM
same,TGI,PC-3 prostate,> 100 µM
same,TGI,NCI-H522 lung,> 100 µM
same,TGI,A549 NSCLC,> 100 µM
same,TGI,LOX IMVI melanoma,> 100 µM
same,TGI,SNB-19 CNS,> 100 µM
same,TGI,SN12C renal,> 100 µM
same,TGI,T-47D breast,> 100 µM
same,TGI,TK-10 renal,> 100 µM
same,TGI,RPMI-8226 leukemia,> 100 µM
same,TGI,HOP-62 NSCLC,> 100 µM
same,TGI,SF-539 CNS,> 100 µM
same,TGI,IGROV1 ovarian,> 100 µM
same,TGI,HCT-116 colon,> 100 µM
same,TGI,HS 578T breast,> 100 µM
same,TGI,NCI/ADR-RES ovarian,> 100 µM
same,TGI,UACC-257 melanoma,> 100 µM
same,TGI,U251 CNS,> 100 µM
same,TGI,NCI-H226 lung,> 100 µM
same,TGI,SK-OV-3 ovarian,> 100 µM
same,TGI,COLO 205 colon,> 100 µM
same,TGI,OVCAR-3 ovarian,> 100 µM
same,TGI,OVCAR-8 ovarian,> 100 µM
same,TGI,MDA-N,> 100 µM
same,TGI,EKVX NSCLC,> 100 µM
same,TGI,UO-31 renal,> 100 µM
same,TGI,SK-MEL-28 melanoma,> 100 µM
same,TGI,MOLT-4 leukemia,> 100 µM
same,TGI,M14 melanoma,> 100 µM
same,TGI,UACC-62 melanoma,> 100 µM
same,TGI,K-562 leukemia,> 100 µM
same,TGI,SK-MEL-5 melanoma,> 100 µM
same,TGI,BT-549 breast,> 100 µM
same,TGI,A498 renal,> 100 µM
same,TGI,OVCAR-4 ovarian,> 100 µM
same,TGI,SNB-75 CNS,> 100 µM
Oc1c(Cl)c(Cl)c(O)c2c1CCCC2,TGI,CCRF-CEM leukemia,5.05 µM
same,TGI,HT29 colon,44.6 µM
same,TGI,SF-295 CNS,37.6 µM
same,TGI,RXF 393 renal,22.5 µM
same,TGI,MCF7 breast,4.56 µM
same,TGI,SF-268 CNS,24.8 µM
same,TGI,ACHN renal,3.27 µM
same,TGI,HOP-92 NSCLC,4.85 µM
same,TGI,MDA-MB-435,34.1 µM
same,TGI,HCT-15 colon,29.7 µM
same,TGI,KM12 colon,30.2 µM
same,TGI,SW-620 colon,3.92 µM
same,TGI,SK-MEL-2 melanoma,45.4 µM
same,TGI,786-0 renal,3.94 µM
same,TGI,NCI-H23 lung,40.8 µM
same,TGI,MALME-3M melanoma,9.48 µM
same,TGI,MDA-MB-231 breast,41.9 µM
same,TGI,PC-3 prostate,36.7 µM
same,TGI,A549 NSCLC,72.6 µM
same,TGI,LOX IMVI melanoma,78.6 µM
same,TGI,SNB-19 CNS,30.5 µM
same,TGI,SN12C renal,30.2 µM
same,TGI,TK-10 renal,9.14 µM
same,TGI,RPMI-8226 leukemia,6.91 µM
same,TGI,HOP-62 NSCLC,51.6 µM
same,TGI,SF-539 CNS,23.5 µM
same,TGI,HCT-116 colon,2.83 µM
same,TGI,HS 578T breast,49.2 µM
same,TGI,NCI/ADR-RES ovarian,38 µM
same,TGI,UACC-257 melanoma,30.5 µM
same,TGI,U251 CNS,42.7 µM
same,TGI,SK-OV-3 ovarian,27.2 µM
same,TGI,COLO 205 colon,3.74 µM
same,TGI,OVCAR-8 ovarian,46 µM
same,TGI,MDA-N,31.1 µM
same,TGI,EKVX NSCLC,21.4 µM
same,TGI,UO-31 renal,5.28 µM
same,TGI,HCC-2998 colon,30.6 µM
same,TGI,NCI-H460 lung,31.9 µM
same,TGI,SK-MEL-28 melanoma,27.7 µM
same,TGI,M14 melanoma,32.5 µM
same,TGI,UACC-62 melanoma,27 µM
same,TGI,SK-MEL-5 melanoma,25.7 µM
same,TGI,BT-549 breast,28.1 µM
same,TGI,A498 renal,33.1 µM
O=C(N/N=C(/COc1ccccc1)N=Cc1cccnc1)c1ccncc1,TGI,CAKI-1 renal,> 100 µM
same,TGI,CCRF-CEM leukemia,> 100 µM
same,TGI,HT29 colon,> 100 µM
same,TGI,SF-295 CNS,> 100 µM
same,TGI,RXF 393 renal,> 100 µM
same,TGI,MCF7 breast,> 100 µM
same,TGI,SF-268 CNS,> 100 µM
same,TGI,OVCAR-5 ovarian,> 100 µM
same,TGI,ACHN renal,> 100 µM
same,TGI,DU-145 prostate,> 100 µM
same,TGI,MDA-MB-435,> 100 µM
same,TGI,HCT-15 colon,> 100 µM
same,TGI,KM12 colon,> 100 µM
same,TGI,SW-620 colon,> 100 µM
same,TGI,SK-MEL-2 melanoma,> 100 µM
same,TGI,786-0 renal,> 100 µM
same,TGI,NCI-H23 lung,> 100 µM
same,TGI,MALME-3M melanoma,> 100 µM
same,TGI,MDA-MB-231 breast,> 100 µM
same,TGI,PC-3 prostate,> 100 µM
same,TGI,NCI-H522 lung,> 100 µM
same,TGI,A549 NSCLC,> 100 µM
same,TGI,LOX IMVI melanoma,> 100 µM
same,TGI,SNB-19 CNS,> 100 µM
same,TGI,SN12C renal,> 100 µM
same,TGI,T-47D breast,> 100 µM
same,TGI,TK-10 renal,> 100 µM
same,TGI,RPMI-8226 leukemia,> 100 µM
same,TGI,HOP-62 NSCLC,> 100 µM
same,TGI,SF-539 CNS,> 100 µM
same,TGI,IGROV1 ovarian,> 100 µM
same,TGI,HCT-116 colon,> 100 µM
same,TGI,HS 578T breast,> 100 µM
same,TGI,NCI/ADR-RES ovarian,> 100 µM
same,TGI,UACC-257 melanoma,> 100 µM
same,TGI,U251 CNS,> 100 µM
same,TGI,NCI-H226 lung,> 100 µM
same,TGI,SK-OV-3 ovarian,> 100 µM
same,TGI,HL-60(TB) leukemia,> 100 µM
same,TGI,COLO 205 colon,> 100 µM
same,TGI,OVCAR-3 ovarian,> 100 µM
same,TGI,OVCAR-8 ovarian,> 100 µM
same,TGI,MDA-N,> 100 µM
same,TGI,EKVX NSCLC,> 100 µM
same,TGI,HCC-2998 colon,> 100 µM
same,TGI,NCI-H460 lung,> 100 µM
same,TGI,SK-MEL-28 melanoma,> 100 µM
same,TGI,MOLT-4 leukemia,> 100 µM
same,TGI,M14 melanoma,> 100 µM
same,TGI,UACC-62 melanoma,> 100 µM
same,TGI,K-562 leukemia,> 100 µM
same,TGI,BT-549 breast,> 100 µM
same,TGI,A498 renal,> 100 µM
same,TGI,OVCAR-4 ovarian,> 100 µM
same,TGI,SNB-75 CNS,> 100 µM
